{
  "source": "patent US20260297081A1",
  "about": "“COMPOUNDS AND METHODS OF TREATING CANCERS” (Cullgen Inc., priority 2023, published 2026)",
  "molecular_target": "CDK4 (Homo sapiens, UniProt P11802+Q16531)",
  "sequence (P11802 2-303 limits assumed)": "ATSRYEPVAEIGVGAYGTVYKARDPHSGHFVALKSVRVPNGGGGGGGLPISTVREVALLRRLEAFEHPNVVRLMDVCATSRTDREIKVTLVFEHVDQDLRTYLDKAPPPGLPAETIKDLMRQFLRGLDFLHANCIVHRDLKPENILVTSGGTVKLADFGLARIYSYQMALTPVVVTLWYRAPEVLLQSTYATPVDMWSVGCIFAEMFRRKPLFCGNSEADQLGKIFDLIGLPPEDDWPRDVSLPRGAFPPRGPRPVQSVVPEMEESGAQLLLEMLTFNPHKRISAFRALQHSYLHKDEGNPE",
  "sequence (P24385 whole entry partner)": "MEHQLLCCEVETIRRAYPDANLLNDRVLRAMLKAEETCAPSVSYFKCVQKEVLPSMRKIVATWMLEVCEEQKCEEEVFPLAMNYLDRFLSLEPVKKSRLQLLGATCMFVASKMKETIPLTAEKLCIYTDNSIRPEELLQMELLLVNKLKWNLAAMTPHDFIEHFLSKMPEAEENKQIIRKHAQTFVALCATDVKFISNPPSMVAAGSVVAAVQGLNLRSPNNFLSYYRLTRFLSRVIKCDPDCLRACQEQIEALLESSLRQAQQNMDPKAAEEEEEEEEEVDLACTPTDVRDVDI",
  "sequence (Q16531 2-1140 limits assumed)": "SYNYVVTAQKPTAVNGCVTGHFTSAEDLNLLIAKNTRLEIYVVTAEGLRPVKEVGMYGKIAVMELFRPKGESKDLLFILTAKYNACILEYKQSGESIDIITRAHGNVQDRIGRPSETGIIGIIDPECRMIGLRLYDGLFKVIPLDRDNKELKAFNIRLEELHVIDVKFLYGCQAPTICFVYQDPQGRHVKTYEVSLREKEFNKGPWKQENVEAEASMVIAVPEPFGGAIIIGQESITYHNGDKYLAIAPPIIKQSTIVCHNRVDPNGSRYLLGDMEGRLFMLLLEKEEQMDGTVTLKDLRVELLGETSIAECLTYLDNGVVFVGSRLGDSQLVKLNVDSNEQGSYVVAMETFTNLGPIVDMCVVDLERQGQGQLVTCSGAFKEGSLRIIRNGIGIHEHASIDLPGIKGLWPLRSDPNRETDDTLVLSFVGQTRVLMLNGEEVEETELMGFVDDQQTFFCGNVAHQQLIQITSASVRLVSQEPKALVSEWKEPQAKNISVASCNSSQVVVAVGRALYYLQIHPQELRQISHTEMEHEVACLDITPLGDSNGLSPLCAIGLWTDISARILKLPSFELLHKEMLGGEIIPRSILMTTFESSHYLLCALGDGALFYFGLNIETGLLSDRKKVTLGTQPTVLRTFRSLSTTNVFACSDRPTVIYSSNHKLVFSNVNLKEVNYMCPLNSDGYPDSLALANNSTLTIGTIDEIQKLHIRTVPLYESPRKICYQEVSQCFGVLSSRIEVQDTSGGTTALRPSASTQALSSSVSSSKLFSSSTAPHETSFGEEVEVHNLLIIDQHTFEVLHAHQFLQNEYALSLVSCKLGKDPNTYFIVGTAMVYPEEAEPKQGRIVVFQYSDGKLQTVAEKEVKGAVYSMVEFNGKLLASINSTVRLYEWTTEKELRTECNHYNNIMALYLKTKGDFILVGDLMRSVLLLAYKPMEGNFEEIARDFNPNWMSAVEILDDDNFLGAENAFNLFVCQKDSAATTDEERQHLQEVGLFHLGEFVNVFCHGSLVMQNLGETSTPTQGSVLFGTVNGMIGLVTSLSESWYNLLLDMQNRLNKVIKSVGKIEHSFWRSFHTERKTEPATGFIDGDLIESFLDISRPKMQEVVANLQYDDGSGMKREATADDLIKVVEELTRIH",
  "experiment": "CDK4 percentage degradation in Calu-1 cells (Table 6)",
  "assay_type": "cell-based",
  "set-up": "Cells that express cyclin D1-3 and CDK4/6 proteins were treated with heterobifunctional compounds; endogenous in cells; host or cells: Calu-1",
  "conditions": "16 hours; for inhibition at 0.04 µM: 40 nM; for inhibition at 0.2 µM: 200 nM",
  "method_in_brief": "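Calu-1 cells exposed to heterobifunctional compounds at 40 nM or 200 nM for 16 h. Cyclin D1 and CDK4 levels measured by Western blot of RIPA lysates (BCA-normalised loading), bands quantified by densitometry and expressed as percentage degradation.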",
  "data": [
    {"smiles": "CC(=O)c1c(C)c2cnc(Nc3ccc(N4CCN(CC(=O)NCCC5CC(Nc6cc(Cl)ccc6C(=O)Nc6ccc(C)c(C7CC7)n6)C5)CC4)cn3)nc2n(C2CCCC2)c1=O", "note": "(centres unmarked) [CPD-255, 2-((3-(2-(2-(4-(6-((6-Acetyl-8-cyclopentyl-5-methyl-7-oxo-7,8-dihydropyrido[2,3-d]pyrimidin-2-yl)amino)pyridin-3-yl)piperazin-1-yl)acetamido)ethyl)cyclobutyl)amino)-4-chloro-N-(6-cyclopropyl-5-methylpyridin-2-yl)benzamide]", "values": [
      {"measurement": "inhibition at 0.04 µM", "result": "< 30", "unit": "%"},
      {"measurement": "inhibition at 0.2 µM", "result": "50 to 80", "unit": "%"}
    ]},
    {"smiles": "CNc1ccc(C(=O)Nc2ccc(N(C)C)nn2)c(NCCC2CC(NC(=O)CN3CCN(c4ccc(Nc5ncc6c(C)c(C(C)=O)c(=O)n(C7CCCC7)c6n5)nc4)CC3)C2)n1", "note": "(centres unmarked) [CPD-41, 2-((2-(3-(2-(4-(6-((6-Acetyl-8-cyclopentyl-5-methyl-7-oxo-7,8-dihydropyrido[2,3-d]pyrimidin-2-yl)amino)pyridin-3-yl)piperazin-1-yl)acetamido)cyclobutyl)ethyl)amino)-N-(6-(dimethylamino)pyridazin-3-yl)-6-(methylamino)nicotinamide]", "values": [
      {"measurement": "inhibition at 0.04 µM", "result": "30 to 50", "unit": "%"},
      {"measurement": "inhibition at 0.2 µM", "result": "50 to 80", "unit": "%"}
    ]},
    {"smiles": "CNc1ccc(C(=O)NC2CC(CN(C)C)C2)c(NCCCCCNC(=O)CN2CCN(c3ccc(Nc4ncc5c(C)c(C(C)=O)c(=O)n(C6CCCC6)c5n4)nc3)CC2)n1", "note": "(centres unmarked) [CPD-65, 2-((5-(2-(4-(6-((6-Acetyl-8-cyclopentyl-5-methyl-7-oxo-7,8-dihydropyrido[2,3-d]pyrimidin-2-yl)amino)pyridin-3-yl)piperazin-1-yl)acetamido)pentyl)amino)-N-(3-((dimethylamino)methyl)cyclobutyl)-6-(methylamino)nicotinamide]", "values": [
      {"measurement": "inhibition at 0.04 µM", "result": "< 30", "unit": "%"},
      {"measurement": "inhibition at 0.2 µM", "result": "< 30", "unit": "%"}
    ]},
    {"smiles": "CNc1ccc(C(=O)NC2CC(N(C)C)C2)c(NCCCCCNC(=O)CN2CCN(c3ccc(Nc4ncc5c(C)c(C(C)=O)c(=O)n(C6CCCC6)c5n4)nc3)CC2)n1", "note": "(centres unmarked) [CPD-64, 2-((5-(2-(4-(6-((6-Acetyl-8-cyclopentyl-5-methyl-7-oxo-7,8-dihydropyrido[2,3-d]pyrimidin-2-yl)amino)pyridin-3-yl)piperazin-1-yl)acetamido)pentyl)amino)-N-(3-(dimethylamino)cyclobutyl)-6-(methylamino)nicotinamide]", "values": [
      {"measurement": "inhibition at 0.04 µM", "result": "< 30", "unit": "%"},
      {"measurement": "inhibition at 0.2 µM", "result": "< 30", "unit": "%"}
    ]},
    {"smiles": "CNc1ccc(C(=O)Nc2cc(C(F)(F)F)n(C)n2)c(NC2CC3(CC(NC(=O)CN4CCN(c5ccc(Nc6ncc7c(C)c(C(C)=O)c(=O)n(C8CCCC8)c7n6)nc5)CC4)C3)C2)n1", "note": "(centres unmarked) [CPD-127, 2-((6-(2-(4-(6-((6-Acetyl-8-cyclopentyl-5-methyl-7-oxo-7,8-dihydropyrido[2,3-d]pyrimidin-2-yl)amino)pyridin-3-yl)piperazin-1-yl)acetamido)spiro[3.3]heptan-2-yl)amino)-N-(1-methyl-5-(trifluoromethyl)-1H-pyrazol-3-yl)-6-(methylamino)nicotinamide]", "values": [
      {"measurement": "inhibition at 0.04 µM", "result": "< 30", "unit": "%"},
      {"measurement": "inhibition at 0.2 µM", "result": "< 30", "unit": "%"}
    ]},
    {"smiles": "CNc1ccc(C(=O)Nc2ccc(N(C)C)nn2)c(NC2CC(NC(=O)N3CCN(c4ccc(Nc5ncc6c(C)c(C(C)=O)c(=O)n(C7CCCC7)c6n5)nc4)CC3)C2)n1", "note": "(centres unmarked) [CPD-151, 4-(6-((6-acetyl-8-cyclopentyl-5-methyl-7-oxo-7,8-dihydropyrido[2,3-d]pyrimidin-2-yl)amino)pyridin-3-yl)-N-(3-((3-((6-(dimethylamino)pyridazin-3-yl)carbamoyl)-6-(methylamino)pyridin-2-yl)amino)cyclobutyl)piperazine-1-carboxamide]", "values": [
      {"measurement": "inhibition at 0.04 µM", "result": "50 to 80", "unit": "%"},
      {"measurement": "inhibition at 0.2 µM", "result": "> 80", "unit": "%"}
    ]},
    {"smiles": "CNc1ccc(C(=O)Nc2cc(C)n(C)n2)c(NC2CC3(CC(NC(=O)CN4CCN(c5ccc(Nc6ncc7c(C)c(C(C)=O)c(=O)n(C8CCCC8)c7n6)nc5)CC4)C3)C2)n1", "note": "(centres unmarked) [CPD-70, 2-((6-(2-(4-(6-((6-Acetyl-8-cyclopentyl-5-methyl-7-oxo-7,8-dihydropyrido[2,3-d]pyrimidin-2-yl)amino)pyridin-3-yl)piperazin-1-yl)acetamido)spiro[3.3]heptan-2-yl)amino)-N-(1,5-dimethyl-1H-pyrazol-3-yl)-6-(methylamino)nicotinamide]", "values": [
      {"measurement": "inhibition at 0.04 µM", "result": "50 to 80", "unit": "%"},
      {"measurement": "inhibition at 0.2 µM", "result": "50 to 80", "unit": "%"}
    ]}
  ]
}
